In ChEMBL document CHEMBL4017490, “Design, Synthesis, and Pharmacological Evaluation of Novel Multisubstituted Pyridin-3-amine Derivatives as Multitargeted Protein Kinase Inhibitors for the Treatment of Non-Small Cell Lung Cancer” (J Med Chem, 2017):

Columns and labels:
[1] = target: Hepatocyte growth factor receptor (Homo sapiens, UniProt P08581); experiment: Inhibition of recombinant c-Met (unknown origin) using poly (Glu,Tyr) 4:1 as substrate after 60 mins by ELISA
[2] = target: Insulin receptor (Homo sapiens, UniProt P06213); experiment: Inhibition of recombinant IR (unknown origin) using poly (Glu,Tyr) 4:1 as substrate after 60 mins by ELISA
Insulin receptor, sequence (P06213 28-758 limits assumed): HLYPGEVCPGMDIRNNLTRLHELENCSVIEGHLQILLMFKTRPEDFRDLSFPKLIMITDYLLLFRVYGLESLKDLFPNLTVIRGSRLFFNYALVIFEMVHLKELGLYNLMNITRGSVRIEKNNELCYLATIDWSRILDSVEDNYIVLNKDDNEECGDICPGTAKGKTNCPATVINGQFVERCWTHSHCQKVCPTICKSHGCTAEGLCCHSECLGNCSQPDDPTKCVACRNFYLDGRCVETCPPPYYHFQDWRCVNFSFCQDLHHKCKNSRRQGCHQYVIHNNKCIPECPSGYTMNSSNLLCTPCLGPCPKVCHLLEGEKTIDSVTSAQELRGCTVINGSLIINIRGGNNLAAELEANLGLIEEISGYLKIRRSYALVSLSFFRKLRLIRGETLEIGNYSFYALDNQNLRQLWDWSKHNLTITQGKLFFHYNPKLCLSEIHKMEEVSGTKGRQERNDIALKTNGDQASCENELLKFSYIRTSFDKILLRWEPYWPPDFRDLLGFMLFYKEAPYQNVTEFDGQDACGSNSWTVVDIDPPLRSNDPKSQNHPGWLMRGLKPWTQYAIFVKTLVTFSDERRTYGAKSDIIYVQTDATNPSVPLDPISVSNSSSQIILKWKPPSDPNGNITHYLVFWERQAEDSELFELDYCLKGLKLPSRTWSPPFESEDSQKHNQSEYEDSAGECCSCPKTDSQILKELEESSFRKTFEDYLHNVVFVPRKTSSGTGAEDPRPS
Insulin receptor, sequence (P06213 763-1382 limits assumed): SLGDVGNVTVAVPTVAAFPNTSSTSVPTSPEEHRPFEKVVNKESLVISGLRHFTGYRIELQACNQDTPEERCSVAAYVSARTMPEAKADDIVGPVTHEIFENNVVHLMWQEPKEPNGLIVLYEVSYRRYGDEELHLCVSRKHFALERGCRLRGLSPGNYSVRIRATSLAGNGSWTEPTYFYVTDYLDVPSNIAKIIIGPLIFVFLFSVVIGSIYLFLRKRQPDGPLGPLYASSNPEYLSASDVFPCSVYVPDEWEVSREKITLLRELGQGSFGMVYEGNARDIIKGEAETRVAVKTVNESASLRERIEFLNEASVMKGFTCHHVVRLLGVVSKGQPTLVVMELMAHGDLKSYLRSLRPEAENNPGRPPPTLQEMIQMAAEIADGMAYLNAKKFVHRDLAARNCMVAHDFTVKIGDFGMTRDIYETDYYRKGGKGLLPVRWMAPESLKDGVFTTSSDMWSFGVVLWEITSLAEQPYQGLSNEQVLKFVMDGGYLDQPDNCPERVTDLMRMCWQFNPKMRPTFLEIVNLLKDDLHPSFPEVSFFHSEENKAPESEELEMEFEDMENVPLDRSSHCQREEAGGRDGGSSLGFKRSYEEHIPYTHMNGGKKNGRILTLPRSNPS

[3] = target: Insulin-like growth factor 1 receptor (Homo sapiens, UniProt P08069); experiment: Inhibition of recombinant IGF1R (unknown origin) using poly (Glu,Tyr) 4:1 as substrate after 60 mins by ELISA
[4] = target: Proto-oncogene tyrosine-protein kinase Src (Homo sapiens, UniProt P12931); experiment: Inhibition of recombinant c-Src (unknown origin) using poly (Glu,Tyr) 4:1 as substrate after 60 mins by ELISA
[5] = target: Vascular endothelial growth factor receptor 2 (Homo sapiens, UniProt P35968); experiment: Inhibition of recombinant KDR (unknown origin) using poly (Glu,Tyr) 4:1 as substrate after 60 mins by ELISA
Vascular endothelial growth factor receptor 2, sequence (P35968 whole entry): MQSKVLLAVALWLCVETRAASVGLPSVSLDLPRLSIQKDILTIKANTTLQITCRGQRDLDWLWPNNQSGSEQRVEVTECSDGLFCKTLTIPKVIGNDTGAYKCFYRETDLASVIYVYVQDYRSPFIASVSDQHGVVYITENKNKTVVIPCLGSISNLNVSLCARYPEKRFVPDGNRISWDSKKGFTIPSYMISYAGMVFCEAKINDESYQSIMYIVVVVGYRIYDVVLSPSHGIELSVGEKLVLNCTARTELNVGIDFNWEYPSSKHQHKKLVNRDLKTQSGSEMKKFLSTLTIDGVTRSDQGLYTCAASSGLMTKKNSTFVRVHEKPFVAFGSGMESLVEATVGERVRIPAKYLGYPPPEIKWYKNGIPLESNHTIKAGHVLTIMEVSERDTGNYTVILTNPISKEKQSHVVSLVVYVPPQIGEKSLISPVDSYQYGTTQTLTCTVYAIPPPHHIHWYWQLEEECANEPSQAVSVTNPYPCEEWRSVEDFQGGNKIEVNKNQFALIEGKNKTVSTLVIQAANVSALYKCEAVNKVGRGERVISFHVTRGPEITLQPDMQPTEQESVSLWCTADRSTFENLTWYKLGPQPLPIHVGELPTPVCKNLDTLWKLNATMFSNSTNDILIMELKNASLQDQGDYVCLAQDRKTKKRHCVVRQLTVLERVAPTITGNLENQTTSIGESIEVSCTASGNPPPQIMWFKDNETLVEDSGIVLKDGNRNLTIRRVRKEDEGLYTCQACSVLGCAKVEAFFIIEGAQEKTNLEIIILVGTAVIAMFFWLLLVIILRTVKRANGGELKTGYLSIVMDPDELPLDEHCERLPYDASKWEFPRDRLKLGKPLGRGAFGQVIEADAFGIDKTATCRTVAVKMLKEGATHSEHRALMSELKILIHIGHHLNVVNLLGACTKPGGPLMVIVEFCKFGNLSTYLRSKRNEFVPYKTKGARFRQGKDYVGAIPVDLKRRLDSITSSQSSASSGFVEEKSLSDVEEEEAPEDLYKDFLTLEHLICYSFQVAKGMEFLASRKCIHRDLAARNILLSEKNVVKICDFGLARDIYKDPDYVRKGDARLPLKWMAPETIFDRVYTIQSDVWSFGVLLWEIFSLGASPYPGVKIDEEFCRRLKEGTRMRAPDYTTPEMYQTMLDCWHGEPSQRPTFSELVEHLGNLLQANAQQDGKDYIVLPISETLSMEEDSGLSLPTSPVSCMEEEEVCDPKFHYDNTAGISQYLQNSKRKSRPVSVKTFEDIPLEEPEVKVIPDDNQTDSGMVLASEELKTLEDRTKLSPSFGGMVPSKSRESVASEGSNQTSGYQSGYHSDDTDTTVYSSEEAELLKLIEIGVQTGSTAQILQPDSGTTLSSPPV

[6] = target: Tyrosine-protein kinase ABL1 (Homo sapiens, UniProt P00519)
Tyrosine-protein kinase ABL1, sequence (P00519 whole entry): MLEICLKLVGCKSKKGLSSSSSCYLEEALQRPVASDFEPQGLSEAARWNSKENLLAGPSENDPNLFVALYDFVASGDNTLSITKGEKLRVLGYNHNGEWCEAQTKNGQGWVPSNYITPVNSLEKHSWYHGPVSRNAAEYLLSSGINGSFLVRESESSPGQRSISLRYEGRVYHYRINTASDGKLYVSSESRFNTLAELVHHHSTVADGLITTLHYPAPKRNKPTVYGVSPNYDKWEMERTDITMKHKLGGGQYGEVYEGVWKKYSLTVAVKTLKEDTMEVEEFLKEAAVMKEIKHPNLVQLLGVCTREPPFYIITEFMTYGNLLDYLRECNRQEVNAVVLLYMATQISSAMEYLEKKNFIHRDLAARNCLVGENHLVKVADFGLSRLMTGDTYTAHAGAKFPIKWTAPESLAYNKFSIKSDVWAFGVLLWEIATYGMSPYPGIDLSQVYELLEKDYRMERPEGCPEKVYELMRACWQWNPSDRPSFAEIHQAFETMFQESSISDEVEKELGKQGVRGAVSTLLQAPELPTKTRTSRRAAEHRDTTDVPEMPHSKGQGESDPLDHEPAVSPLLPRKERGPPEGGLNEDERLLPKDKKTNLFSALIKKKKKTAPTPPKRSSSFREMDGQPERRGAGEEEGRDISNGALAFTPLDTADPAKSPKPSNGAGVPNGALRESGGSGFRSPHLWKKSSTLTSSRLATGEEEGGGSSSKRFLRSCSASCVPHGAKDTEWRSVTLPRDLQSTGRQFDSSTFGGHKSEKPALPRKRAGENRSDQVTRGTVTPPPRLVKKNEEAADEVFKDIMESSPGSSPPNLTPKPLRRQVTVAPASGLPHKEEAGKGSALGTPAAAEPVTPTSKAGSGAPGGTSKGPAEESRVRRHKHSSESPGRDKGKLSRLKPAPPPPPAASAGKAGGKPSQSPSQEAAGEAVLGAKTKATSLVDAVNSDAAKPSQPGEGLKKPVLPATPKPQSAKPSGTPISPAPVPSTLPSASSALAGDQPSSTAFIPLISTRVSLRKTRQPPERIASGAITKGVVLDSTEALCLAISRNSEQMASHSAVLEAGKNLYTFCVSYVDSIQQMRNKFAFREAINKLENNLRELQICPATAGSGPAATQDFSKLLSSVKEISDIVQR
Description: Inhibition of recombinant ABL (unknown origin) using poly (Glu,Tyr) 4:1 as substrate after 60 mins by ELISA

[7] = target: Mitogen-activated protein kinase 1 (Homo sapiens, UniProt P28482); experiment: Inhibition of Erk2 (unknown origin) by FRET assay
[8] = target: Epidermal growth factor receptor (Homo sapiens, UniProt P00533)
Description: Inhibition of recombinant EGFR (unknown origin) using poly (Glu,Tyr) 4:1 as substrate after 60 mins by ELISA

[9] = target: Receptor tyrosine-protein kinase erbB-2 (Homo sapiens, UniProt P04626); experiment: Inhibition of recombinant ErbB2 (unknown origin) using poly (Glu,Tyr) 4:1 as substrate after 60 mins by ELISA
[10] = target: Epidermal growth factor receptor (Homo sapiens, UniProt P00533, L858R/T790M); experiment: Inhibition of recombinant EGFR T790M/L858R mutant (unknown origin) using poly (Glu,Tyr) 4:1 as substrate after 60 mins by ELISA
[11] = target: Fibroblast growth factor receptor 3 (Homo sapiens, UniProt P22607); experiment: Inhibition of recombinant human FGFR3 using poly (Glu,Tyr) 4:1 as substrate after 60 mins by ELISA
Fibroblast growth factor receptor 3, sequence (P22607 whole entry): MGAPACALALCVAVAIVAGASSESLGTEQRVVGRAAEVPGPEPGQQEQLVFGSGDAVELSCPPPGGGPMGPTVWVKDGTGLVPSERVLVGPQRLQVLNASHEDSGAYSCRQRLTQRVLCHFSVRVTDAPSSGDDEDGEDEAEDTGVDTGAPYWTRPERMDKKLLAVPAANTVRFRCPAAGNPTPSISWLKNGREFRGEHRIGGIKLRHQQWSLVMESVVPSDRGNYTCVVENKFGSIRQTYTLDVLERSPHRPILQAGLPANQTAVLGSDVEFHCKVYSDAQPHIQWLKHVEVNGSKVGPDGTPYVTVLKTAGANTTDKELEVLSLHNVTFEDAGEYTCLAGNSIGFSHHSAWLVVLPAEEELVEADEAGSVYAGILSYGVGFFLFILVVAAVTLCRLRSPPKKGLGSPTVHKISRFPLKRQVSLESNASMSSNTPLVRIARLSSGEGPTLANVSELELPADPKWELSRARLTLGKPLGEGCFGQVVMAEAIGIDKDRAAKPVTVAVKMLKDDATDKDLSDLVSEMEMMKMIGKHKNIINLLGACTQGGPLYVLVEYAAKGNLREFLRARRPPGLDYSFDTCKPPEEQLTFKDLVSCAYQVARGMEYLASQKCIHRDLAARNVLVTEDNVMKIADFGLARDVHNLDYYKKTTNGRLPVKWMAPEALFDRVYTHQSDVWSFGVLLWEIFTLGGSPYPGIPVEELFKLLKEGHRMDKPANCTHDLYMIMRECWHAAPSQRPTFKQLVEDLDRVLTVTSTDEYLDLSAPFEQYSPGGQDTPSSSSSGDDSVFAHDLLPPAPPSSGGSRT

[12] = target: Cyclin-dependent kinase 4 (Homo sapiens, UniProt P11802); experiment: Inhibition of CDK4 (unknown origin) by FRET assay
Cyclin-dependent kinase 4, sequence (P11802 whole entry): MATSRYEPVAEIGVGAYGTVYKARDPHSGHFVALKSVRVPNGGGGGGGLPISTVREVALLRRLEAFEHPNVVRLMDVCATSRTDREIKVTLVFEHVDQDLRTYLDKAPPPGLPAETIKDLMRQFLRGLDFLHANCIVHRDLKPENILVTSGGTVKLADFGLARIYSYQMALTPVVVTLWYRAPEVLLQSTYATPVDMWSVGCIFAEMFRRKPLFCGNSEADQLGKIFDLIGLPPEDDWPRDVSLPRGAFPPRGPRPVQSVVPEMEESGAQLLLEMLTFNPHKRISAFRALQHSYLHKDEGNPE

[13] = target: T1, Tyrosine-protein kinase receptor TYRO3 (Homo sapiens, UniProt Q06418); experiment: Inhibition of recombinant Tyro3 (unknown origin) using poly (Glu,Tyr) 4:1 as substrate after 60 mins by ELISA
T1 sequence (Q06418 whole entry): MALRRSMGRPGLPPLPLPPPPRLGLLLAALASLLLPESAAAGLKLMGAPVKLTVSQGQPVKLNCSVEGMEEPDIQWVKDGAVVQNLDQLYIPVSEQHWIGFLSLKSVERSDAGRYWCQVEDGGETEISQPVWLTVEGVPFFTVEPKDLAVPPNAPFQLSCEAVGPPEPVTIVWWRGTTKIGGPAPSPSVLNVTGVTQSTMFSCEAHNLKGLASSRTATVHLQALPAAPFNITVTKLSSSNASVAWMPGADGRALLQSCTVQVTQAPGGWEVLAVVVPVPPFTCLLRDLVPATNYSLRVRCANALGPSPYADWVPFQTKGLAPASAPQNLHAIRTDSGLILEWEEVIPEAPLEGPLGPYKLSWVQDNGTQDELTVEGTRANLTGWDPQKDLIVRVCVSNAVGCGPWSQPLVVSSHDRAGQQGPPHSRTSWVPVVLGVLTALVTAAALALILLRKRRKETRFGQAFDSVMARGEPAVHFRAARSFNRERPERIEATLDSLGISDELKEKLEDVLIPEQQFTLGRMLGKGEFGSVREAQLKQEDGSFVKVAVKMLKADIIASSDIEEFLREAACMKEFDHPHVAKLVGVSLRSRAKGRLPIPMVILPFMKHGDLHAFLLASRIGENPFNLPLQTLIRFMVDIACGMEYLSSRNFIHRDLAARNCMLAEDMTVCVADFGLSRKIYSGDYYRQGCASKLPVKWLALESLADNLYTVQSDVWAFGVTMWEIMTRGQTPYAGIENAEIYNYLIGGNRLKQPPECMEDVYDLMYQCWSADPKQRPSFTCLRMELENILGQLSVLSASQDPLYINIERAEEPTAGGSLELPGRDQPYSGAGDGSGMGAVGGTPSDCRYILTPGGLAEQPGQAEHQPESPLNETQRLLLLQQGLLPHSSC

[14] = target: Vascular endothelial growth factor receptor 1 (Homo sapiens, UniProt P17948); experiment: Inhibition of recombinant VEGFR-1 (unknown origin) using poly (Glu,Tyr) 4:1 as substrate after 60 mins by ELISA
[15] = target: T2, Tyrosine-protein kinase receptor UFO (Homo sapiens, UniProt P30530); experiment: Inhibition of recombinant AXL (unknown origin) using poly (Glu,Tyr) 4:1 as substrate after 60 mins by ELISA
T2 sequence (P30530 whole entry): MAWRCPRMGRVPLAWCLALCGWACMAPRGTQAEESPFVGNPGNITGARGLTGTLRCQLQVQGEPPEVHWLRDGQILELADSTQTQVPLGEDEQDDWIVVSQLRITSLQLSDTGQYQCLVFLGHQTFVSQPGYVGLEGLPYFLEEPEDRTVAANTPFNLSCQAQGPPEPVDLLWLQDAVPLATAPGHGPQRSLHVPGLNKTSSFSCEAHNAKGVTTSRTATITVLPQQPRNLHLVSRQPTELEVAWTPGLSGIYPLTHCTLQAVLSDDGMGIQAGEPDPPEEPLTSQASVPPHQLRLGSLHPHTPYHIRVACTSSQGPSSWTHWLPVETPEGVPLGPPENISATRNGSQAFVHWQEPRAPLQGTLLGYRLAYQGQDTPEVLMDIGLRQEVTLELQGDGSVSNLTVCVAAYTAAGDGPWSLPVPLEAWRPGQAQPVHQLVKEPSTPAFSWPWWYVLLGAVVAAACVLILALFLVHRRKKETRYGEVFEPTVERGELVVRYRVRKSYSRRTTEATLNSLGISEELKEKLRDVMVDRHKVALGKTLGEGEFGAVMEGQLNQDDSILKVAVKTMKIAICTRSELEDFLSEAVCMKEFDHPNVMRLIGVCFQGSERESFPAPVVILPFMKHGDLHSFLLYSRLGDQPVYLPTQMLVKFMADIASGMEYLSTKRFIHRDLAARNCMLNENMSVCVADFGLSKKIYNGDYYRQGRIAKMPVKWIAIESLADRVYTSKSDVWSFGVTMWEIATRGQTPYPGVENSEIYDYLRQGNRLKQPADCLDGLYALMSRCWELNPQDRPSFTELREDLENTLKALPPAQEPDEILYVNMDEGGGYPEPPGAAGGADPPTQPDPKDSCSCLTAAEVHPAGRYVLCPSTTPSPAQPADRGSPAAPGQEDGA

[16] = target: Cyclin-dependent kinase 1 (Homo sapiens, UniProt P06493); experiment: Inhibition of CDK1 (unknown origin) by FRET assay

| IC50 [1] [nM] | IC50 [2] [nM] | IC50 [3] [nM] | IC50 [4] [nM] | IC50 [5] [nM] | IC50 [6] [nM] | IC50 [7] [nM] | IC50 [8] [nM] | IC50 [9] [nM] | IC50 [10] [nM] | IC50 [11] [nM] | IC50 [12] [nM] | IC50 [13] [nM] | IC50 [14] [nM] | IC50 [15] [nM] | IC50 [16] [nM] | SMILES |
| --- | --- | --- | --- | --- | --- | --- | --- | --- | --- | --- | --- | --- | --- | --- | --- | --- |
| 196 | 431 | > 1000 | 6.4 | 0.8 | 4.3 | 196 | 4.2 | 1 to 10 | 1.9 | 23 | > 1000 | > 1000 | > 10 | > 1000 | > 1000 | OC[C@H](Nc1cnc(-c2cc(Cl)ccc2O)c(-c2ccc3cnccc3c2)c1)c1ccccc1 |
| > 1000 | 91.6 | > 100 | 3.9 | 3.7 | 6.6 | 960 | 3.1 | 1 to 10 | 8.6 | 73.1 | > 1000 | > 1000 | > 10 | > 1000 | > 1000 | Cc1n[nH]c2ccc(-c3cc(N[C@@H](CO)c4ccccc4)cnc3-c3cc(Cl)ccc3O)cc12 |
| > 1000 | 417 | > 1000 | 5.7 | 1.7 | 2.9 | 575 | 4.7 | > 10 | 6 | 27.5 | > 1000 | > 1000 | 1 to 10 | > 1000 | > 1000 | Cc1n[nH]c2ccc(-c3cc(N[C@@H](CO)c4ccccc4)cnc3-c3cc(F)ccc3O)cc12 |
| > 1000 | 888 | > 1000 | 6 | 2.6 | 6.1 | > 1000 | 8.1 | 1 to 10 | 1.3 | 15.9 | > 1000 | > 1000 | > 10 | > 1000 | > 1000 | Cc1n[nH]c2ccc(-c3cc(N[C@@H](CO)c4ccccc4)cnc3-c3ccc(F)cc3O)cc12 |
